Like-named read-outs stand apart in the source and are kept apart here. Values belong to the compound of their own block, whether it stands above or below them.
Experiments:
Assay type in all cases: cell-based, Staphylococcus aureus
MRSA 3095 = assay: microbe, parasite or virus in culture; details: Staphylococcus aureus; MRSA 3095 (human/skin); read-out: MIC
From the text: (§1) MRSA (ATCC 33593), MSSA (ATCC 29213), and MRSA USA300 (BAA-1680) strains were purchased from the American Type Culture Collection (ATCC; Manassas, Va.). Eight clinical isolates of MRSA were obtained from the Culture Collection of Antimicrobial Resistant Microbes, Korea National Research Resource Center (KNRRC). Salmonella enterica Typhimurium LT2 was purchased from ATCC, and Escherichia coli O157:H7 is a kind gift from Dr. Sangryeol Ryu (Seoul National University, South Korea). All S. aureus strains were maintained in Trypticase Soy (TS) medium, and E. coli O157:H7 and Salmonella were routinely grown aerobically on Luria-Bertani (LB) media at 37° C. For measuring growth kinetics, an overnight culture of MRSA in Mueller-Hinton (MH) broth was diluted 100-fold in fresh MH broth and cultured until early exponential phase. The culture (200 μl) was transferred to each well of a sterile 96-well plate and incubated at 37° C. with bacitracin alone, alkyl gallate alone, and combination of bacitracin/alkyl gallates at various concentrations. The optical density at 600 nm (OD600) was measured every hour with FLUOstar® Omega (BMG Labtech, Germany).
(§2) Broth micro dilution assays were performed to determine the minimum inhibitory concentrations (MIC) accordance to the M7-A7 protocol of the Clinical and Laboratory Standards Institute (CLSI) guidelines^28. The susceptibility test was carried out with an initial bacterial inoculum of 1.5×10^5 CFU ml^−1. Alkyl gallates and bacitracin were serially diluted in a polystyrene 96 well plate and the plate was incubated at 37° C. for 24 h. Minimum bactericidal concentration (MBC) was determined by spotting 10 μl of cultures from MIC tests onto MH agar and incubated aerobically at 37° C.

MRSA 3795 = assay: microbe, parasite or virus in culture
From the text: as §1, §2

MRSA 3799 = assay: microbe, parasite or virus in culture
From the text: as §1, §2

MRSA 3823 = assay: microbe, parasite or virus in culture
From the text: as §1, §2

MRSA 3865 = assay: microbe, parasite or virus in culture
From the text: as §1, §2

MRSA 3876 = assay: microbe, parasite or virus in culture
From the text: as §1, §2

MRSA 3903 = assay: microbe, parasite or virus in culture
From the text: as §1, §2

MRSA (ATCC 33593) = assay: microbe, parasite or virus in culture; details: for MIC: Staphylococcus aureus
From the text: as §1, §2
(§3) MICs were determined with MRSA and methicillin-sensitive S. aureus (MSSA) using a broth dilution method as described above.
(§4) MRSA and MSSA were cultured overnight with antioxidants (0.5 μg/ml) and bacitracin at various concentrations and 10 μL of the culture was spotted on MH agar plates and incubated aerobically at 37° C. to observe the bacterial viability. The results in FIGS. 9A, 9B, 9C and 9D (photographs of plates) show the Minimal Bactericidal Concentrations (MBCs) for indicated antioxidants. Bacitracin killed MRSA and MSSA at concentrations greater than or equal to 2 μg/mi.

MSSA (ATCC 29213) = assay: MIC (broth dilution) and MBC (spotting) of phenolic antioxidants and bacitracin; details: for MIC: antioxidant alone
From the text: as §1, §2, §3, §4

MRSA 3A585 = assay: microbe, parasite or virus in culture
From the text: as §1, §2

[1] = test system: MRSA (normal MRSA strain, not USA300); assay: MRSA growth (optical density) with bacitracin and phenolic antioxidants
From the text: as §1
MRSA were grown with bacitracin (0.002 μg/mL) with antioxidant (as shown) at 0.5 μg/mL.
FIG. 7A is growth with no added bacitracin or lauryl gallate.
The optical density of MRSA was measured after 18 h culture with bacitracin (0.002 μg/ml) and antioxidants (as indicated at 0.5 μg/ml). Also measured were controls with no additions, with bacitracin alone and with antioxidant alone. FIGS. 8A, 8B, 8C and 8D are graphs illustrating the results.

[2] = Staphylococcus aureus, MRSA 3795 (human/nose), read-out: MIC
[3] = Staphylococcus aureus, MRSA 3799 (human/nose), read-out: MIC
[4] = Staphylococcus aureus, MRSA 3823 (human/nose), read-out: MIC
[5] = Staphylococcus aureus, MRSA 3865 (human/skin), read-out: MIC
[6] = Staphylococcus aureus, MRSA 3876 (human/skin), read-out: MIC
[7] = Staphylococcus aureus, MRSA 3903 (human/skin), read-out: MIC
[8] = MRSA, antioxidant alone, read-out: MIC
[9] = Staphylococcus aureus, read-out: MIC

- MIC (MRSA 3095): ≥ 128 µg/mL
- MIC (MRSA 3795; [2]): 0.5 µg/mL
- MIC (MRSA 3799; [3]): 0.25 µg/mL
- MIC (MRSA 3823; [4]): 32 µg/mL
- MIC (MRSA 3865; [5]): ≥ 128 µg/mL
- MIC (MRSA 3876; [6]): 0.25 µg/mL
- MIC (MRSA 3903; [7]): 64 µg/mL
Compound: CCn1cc(C(=O)O)c(=O)c2cc(F)c(N3CCNCC3)cc21 [NOR, norfloxacin]

- MIC (MRSA (ATCC 33593); [8]): > 1020 µg/mL
- MIC (MSSA (ATCC 29213); [9]): > 1020 µg/mL
Compound: O=C1C[C@@H](c2ccc(O)cc2)Oc2cc(O)cc(O)c21 [Narigenine, naringenin]

- MIC (MRSA 3095): ≥ 64 µg/mL
- MIC (MRSA 3795; [2]): ≥ 128 µg/mL
- MIC (MRSA 3799; [3]): ≥ 128 µg/mL
- MIC (MRSA 3823; [4]): 128 µg/mL
- MIC (MRSA 3865; [5]): 128 µg/mL
- MIC (MRSA 3876; [6]): 128 µg/mL
- MIC (MRSA 3903; [7]): ≥ 128 µg/mL
- MIC (MRSA 3A585; Staphylococcus aureus, MRSA 3A585 (human/blood), read-out: MIC): > 2 µg/mL
Compound: Cc1onc(-c2ccccc2)c1C(=O)N[C@@H]1C(=O)N2[C@@H]1SC(C)(C)[C@@H]2C(=O)O [OXA, oxacillin]

- MIC (MRSA (ATCC 33593); [8]): > 1020 µg/mL
- MIC (MSSA (ATCC 29213); [9]): > 1020 µg/mL
Compound: O=c1c(O)c(-c2ccc(O)c(O)c2)oc2cc(O)cc(O)c12 [Quercetin, quercetin]

- MIC (MRSA (ATCC 33593); [8]): > 1020 µg/mL
- MIC (MSSA (ATCC 29213); [9]): > 1020 µg/mL
Compound: O=C(O)c1ccccc1O [Salicylic acid, salicylic acid]

Compound: COc1cc(/C=C/C(=O)O)cc(OC)c1O [Sinapic acid, sinapic acid]
- MIC (MRSA (ATCC 33593)): > 1020 µg/mL
- MIC (MSSA (ATCC 29213); [9]): > 1020 µg/mL

Compound: CN(C)[C@@H]1C(O)=C(C(N)=O)C(=O)[C@@]2(O)C(O)=C3C(=O)c4c(O)cccc4[C@@](C)(O)[C@H]3C[C@@H]12 [TET, tetracycline]
- MIC (MRSA 3795; Staphylococcus aureus, MRSA): 16 µg/mL
- MIC (MRSA 3799; Staphylococcus aureus, MRSA): 64 µg/mL
- MIC (MRSA 3823; Staphylococcus aureus, MRSA): 64 µg/mL
- MIC (MRSA 3865; Staphylococcus aureus, MRSA): 32 µg/mL
- MIC (MRSA 3876; Staphylococcus aureus, MRSA): 16 µg/mL
- MIC (MRSA 3903; Staphylococcus aureus, MRSA): 128 µg/mL
- MIC (MRSA 3A585; Staphylococcus aureus, MRSA): ≥ 8 µg/mL

Compound: O=C(OC[C@H]1O[C@@H](OC(=O)c2cc(O)c(O)c(OC(=O)c3cc(O)c(O)c(O)c3)c2)[C@H](OC(=O)c2cc(O)c(O)c(OC(=O)c3cc(O)c(O)c(O)c3)c2)[C@@H](OC(=O)c2cc(O)c(O)c(OC(=O)c3cc(O)c(O)c(O)c3)c2)[C@@H]1OC(=O)c1cc(O)c(O)c(OC(=O)c2cc(O)c(O)c(O)c2)c1)c1cc(O)c(O)c(OC(=O)c2cc(O)c(O)c(O)c2)c1 [Tannic acid, tannic acid]
- fold decrease of bacitracin MBC by antioxidant (MRSA (ATCC 33593); MRSA, antioxidant 0.5 μg/ml, compared to bacitracin alone): 4 fold
- MIC (MRSA (ATCC 33593)): 512 µg/mL
- MIC (MRSA (ATCC 33593); [8]): 1020 µg/mL
- MIC (MSSA (ATCC 29213); [9]): 256 µg/mL
- fold decrease of bacitracin MBC by antioxidant (MSSA (ATCC 29213); antioxidant 0.5 μg/ml, compared to bacitracin alone): 8 fold
- MIC (MSSA (ATCC 29213)): 128 µg/mL
- growth of MRSA with bacitracin plus antioxidant ([1]; bacitracin 0.002 μg/mL, antioxidant 0.5 μg/mL, FIG. 6): significantly inhibited the growth of MRSA
- optical density of MRSA after 18 h culture: inhibition of growth in combination with bacitracin ([1]; bacitracin 0.002 μg/ml (ca. 0.0002 U), antioxidant 0.5 μg/ml, 18 h, FIG. 8): significantly inhibited MRSA

- MIC (MRSA (ATCC 33593); [8]): > 1020 µg/mL
- MIC (MSSA (ATCC 29213); [9]): > 1020 µg/mL
Compound: O=C1c2c(O)cc(O)cc2O[C@H](c2ccc(O)c(O)c2)[C@H]1O [Taxifolin, taxifolin]

- MIC (MRSA (ATCC 33593); [8]): > 1020 µg/mL
- MIC (MSSA (ATCC 29213); [9]): > 1020 µg/mL
Compound: COc1cc(C(=O)O)ccc1O [Vanillic acid, vanillic acid]

Compound: gentamicin
- MIC (MRSA 3795; MRSA 3795 (human/nose)): ≥128 µg/mL
- MIC (MRSA 3799; MRSA 3799 (human/nose)): 32 µg/mL
- MIC (MRSA 3823; MRSA 3823 (human/nose)): ≥128 µg/mL
- MIC (MRSA 3865; MRSA 3865 (human/skin)): 32 µg/mL
- MIC (MRSA 3876; MRSA 3876 (human/skin)): 32 µg/mL
- MIC (MRSA 3903; MRSA 3903 (human/skin)): ≥128 µg/mL
- MIC (MRSA 3A585; MRSA 3A585 (human/blood)): ≥8 µg/mL

Compound: penicillin
- MIC (MRSA 3795; MRSA 3795 (human/nose)): 16 µg/mL
- MIC (MRSA 3799; MRSA 3799 (human/nose)): 8 µg/mL
- MIC (MRSA 3823; MRSA 3823 (human/nose)): 16 µg/mL
- MIC (MRSA 3865; MRSA 3865 (human/skin)): 16 µg/mL
- MIC (MRSA 3876; MRSA 3876 (human/skin)): 16 µg/mL
- MIC (MRSA 3903; MRSA 3903 (human/skin)): 32 µg/mL

Source: patent US10420815B2, “Combinational therapy for synergistic inhibition of gram-positive and gram-negative bacteria” (priority 2015, dated 2019)
